{"source": "paper PMC12123727", "about": "(BMC Cancer, 2025)", "key": {"[1]": {"test": "Phase 1 plasma pharmacokinetics", "assay_type": "in vivo, human", "details": "for increase of exposure (plasma concentration) with dose: dose range 40–80 mg BID; for AUC(0-t) / AUC(0-inf) / Cmax / half-life / Tmax / MRT last: human, plasma; for AUC(0-t): AUC0-t; for AUC(0-t) / AUC(0-inf) / Cmax: Mean ± SD; for AUC(0-inf): AUC0-∞; for half-life: T1/2, Median; for Tmax: Median; for MRT last: po"}, "r/r B cell NHL": {"tested_on": "r/r B cell NHL", "test": "Phase 1 efficacy", "assay_type": "in vivo, human"}, "[2]": {"tested_on": "Relapsed/Refractory Lymphoma", "details": "cited from earlier work"}, "[3]": {"details": "C1D7 compared to C1D1, 40–80 mg BID"}, "[4]": {"details": "oral, 40 mg, abexinostat continuous administration (BID, 4-h interval) on C1D1, 40 mg (n = 4)"}, "[5]": {"details": "oral, 40 mg, abexinostat continuous administration (BID, 4-h interval) on C1D7, 40 mg (n = 4)"}, "[6]": {"details": "oral, 60 mg, abexinostat continuous administration (BID, 4-h interval) on C1D1, 60 mg (n = 3)"}, "[7]": {"details": "oral, 60 mg, abexinostat continuous administration (BID, 4-h interval) on C1D7, 60 mg (n = 3)"}, "[8]": {"details": "oral, 80 mg, abexinostat continuous administration (BID, 4-h interval) on C1D1, 80 mg (n = 4)"}, "[9]": {"details": "oral, 80 mg, abexinostat continuous administration (BID, 4-h interval) on C1D7, 80 mg (n = 4)"}, "[10]": {"details": "PCYC-0403, r/r FL patients (n = 14)"}}, "note": "Like-named read-outs stand apart in the source and are kept apart here.", "data": [{"molecule": "CN(C)Cc1c(C(=O)NCCOc2ccc(C(=O)NO)cc2)oc2ccccc12", "note": "[abexinostat, Abexinostat]", "values": [{"measurement": "average accumulation ratio for Cmax (RA-Cmax)", "setting": "[1]; [3]", "result": "0.94–1.48"}, {"measurement": "average accumulation ratio for the AUC (RA-AUC)", "setting": "[1]; [3]", "result": "1.16–1.52"}, {"measurement": "increase of exposure (plasma concentration) with dose", "setting": "[1]", "result": "approximately dose-proportional"}, {"measurement": "increase of exposure (plasma concentration) with dose", "setting": "[1]; listed as Abexinostat", "result": "dose-proportional"}, {"measurement": "AUC(0-t)", "setting": "[1]; [4]", "result": "339 ± 90.9", "unit": "ng·h/mL"}, {"measurement": "AUC(0-t)", "setting": "[1]; [5]", "result": "463 ± 32.5", "unit": "ng·h/mL"}, {"measurement": "AUC(0-inf)", "setting": "[1]; [4]", "result": "361 ± 88.3", "unit": "ng·h/mL"}, {"measurement": "AUC(0-inf)", "setting": "[1]; [5]", "result": "491 ± 43.7", "unit": "ng·h/mL"}, {"measurement": "Cmax", "setting": "[1]; [4]", "result": "98.1 ± 27.6", "unit": "ng/mL"}, {"measurement": "Cmax", "setting": "[1]; [5]", "result": "107 ± 16.3", "unit": "ng/mL"}, {"measurement": "half-life", "setting": "[1]; [4]", "result": 3.69, "unit": "h"}, {"measurement": "half-life", "setting": "[1]; [5]", "result": 4.84, "unit": "h"}, {"measurement": "Tmax", "setting": "[1]; [4]", "result": 1, "unit": "h"}, {"measurement": "Tmax", "setting": "[1]; [5]", "result": 1, "unit": "h"}, {"measurement": "AUC(0-t)", "setting": "[1]; [6]", "result": "521 ± 60.6", "unit": "ng·h/mL"}, {"measurement": "AUC(0-t)", "setting": "[1]; [7]", "result": "600 ± 53.8", "unit": "ng·h/mL"}, {"measurement": "AUC(0-inf)", "setting": "[1]; [6]", "result": "563 ± 69.6", "unit": "ng·h/mL"}, {"measurement": "AUC(0-inf)", "setting": "[1]; [7]", "result": "656 ± 72", "unit": "ng·h/mL"}, {"measurement": "Cmax", "setting": "[1]; [6]", "result": "115 ± 24.2", "unit": "ng/mL"}, {"measurement": "Cmax", "setting": "[1]; [7]", "result": "104 ± 26.9", "unit": "ng/mL"}, {"measurement": "half-life", "setting": "[1]; [6]", "result": 6.28, "unit": "h"}, {"measurement": "half-life", "setting": "[1]; [7]", "result": 6.53, "unit": "h"}, {"measurement": "Tmax", "setting": "[1]; oral, 60 mg, abexinostat continuous administration (BID, 4-h interval) on C1D1, 60 mg (n = 3), abexinostat value footnoted: 0.5 h after second dose", "result": 4.55, "unit": "h"}, {"measurement": "Tmax", "setting": "[1]; [7]", "result": 0.48, "unit": "h"}, {"measurement": "AUC(0-t)", "setting": "[1]; [8]", "result": "603 ± 104", "unit": "ng·h/mL"}, {"measurement": "AUC(0-t)", "setting": "[1]; [9]", "result": "767 ± 140", "unit": "ng·h/mL"}, {"measurement": "AUC(0-inf)", "setting": "[1]; [8]", "result": "625 ± 116", "unit": "ng·h/mL"}, {"measurement": "AUC(0-inf)", "setting": "[1]; [9]", "result": "744 ± 132", "unit": "ng·h/mL"}, {"measurement": "Cmax", "setting": "[1]; [8]", "result": "128 ± 25.3", "unit": "ng/mL"}, {"measurement": "Cmax", "setting": "[1]; [9]", "result": "184 ± 27", "unit": "ng/mL"}, {"measurement": "half-life", "setting": "[1]; [8]", "result": 5.13, "unit": "h"}, {"measurement": "half-life", "setting": "[1]; [9]", "result": 5.03, "unit": "h"}, {"measurement": "Tmax", "setting": "[1]; oral, 80 mg, abexinostat continuous administration (BID, 4-h interval) on C1D1, 80 mg (n = 4), abexinostat value footnoted: 0.97 h after second dose", "result": 4.78, "unit": "h"}, {"measurement": "Tmax", "setting": "[1]; [9]", "result": 2.74, "unit": "h"}, {"measurement": "MRT last", "setting": "[1]; 40 mg", "result": 2.8, "unit": "h"}, {"measurement": "MRT last", "setting": "[1]; 60 mg", "result": 6.97, "unit": "h"}, {"measurement": "MRT last", "setting": "[1]; 80 mg", "result": 3.47, "unit": "h"}, {"measurement": "accumulation", "setting": "[1]; on C1D7", "result": "slight accumulation"}, {"measurement": "absorption", "setting": "[1]; oral", "result": "rapidly absorbed"}, {"measurement": "12-month PFS rate", "setting": "r/r B cell NHL; FAS", "result": 30.0, "unit": "%"}, {"measurement": "30-month PFS rate", "setting": "r/r B cell NHL; FAS", "result": 20.0, "unit": "%"}, {"measurement": "39-month OS rate", "setting": "r/r B cell NHL; FAS", "result": 64.8, "unit": "%"}, {"measurement": "duration of response (DoR)", "setting": "r/r B cell NHL; FAS", "result": "not reached"}, {"measurement": "median overall survival (OS)", "setting": "r/r B cell NHL; FAS", "result": "not reached"}, {"measurement": "median progression-free survival (PFS)", "setting": "r/r B cell NHL; FAS", "result": 5.01, "unit": "months"}, {"measurement": "objective response rate (ORR)", "setting": "r/r B cell NHL; FAS, 4/10, all doses", "result": 40.0, "unit": "%"}, {"measurement": "disease control rate (DCR)", "setting": "r/r B cell NHL; FAS, 6/10", "result": 60, "unit": "%"}, {"measurement": "PFS of the patient who achieved CR", "setting": "r/r B cell NHL; Patient 2, DLBCL, 40 mg BID, still on treatment", "result": "over 30 months"}, {"measurement": "patients still alive", "setting": "r/r B cell NHL; at data cutoff November 30, 2023", "result": "Seven patients"}, {"measurement": "median DoR", "setting": "r/r B cell NHL; patients with FL", "result": 7.82, "unit": "months"}, {"measurement": "median PFS", "setting": "r/r B cell NHL; patients with FL", "result": 8.38, "unit": "months"}, {"measurement": "ORR", "setting": "r/r B cell NHL; patients with FL, 3/6", "result": 50, "unit": "%"}, {"measurement": "DCR", "setting": "r/r B cell NHL; patients with FL, 5/6", "result": 83.3, "unit": "%"}, {"measurement": "DCR", "setting": "r/r B cell NHL; r/r DLBCL patients, 1/4", "result": 25, "unit": "%"}, {"measurement": "ORR", "setting": "r/r B cell NHL; r/r DLBCL patients, 1/4", "result": 25, "unit": "%"}, {"measurement": "ORR", "setting": "[2]; PCYC-0403, mantle cell lymphoma, 3/11", "result": 27.3, "unit": "%"}, {"measurement": "median PFS", "setting": "[2]; PCYC-0403, mantle cell lymphoma", "result": 3.9, "unit": "months"}, {"measurement": "CR, patients", "setting": "[2]; [10]", "result": 1}, {"measurement": "PR, patients", "setting": "[2]; [10]", "result": 8}, {"measurement": "ORR", "setting": "[2]; PCYC-0403, r/r FL patients, 9/14", "result": 64.3, "unit": "%"}, {"measurement": "DCR", "setting": "[2]; PCYC-0403, r/r FL patients, 12/14", "result": 85.7, "unit": "%"}, {"measurement": "median PFS", "setting": "[2]; PCYC-0403, r/r FL patients", "result": 20.5, "unit": "months"}]}]}
